Measurements taken from US10918648B2, “Estrogen receptor modulator combinations” (The Regents of the University of California, priority 2016, dated 2021).
Where two headings read alike, the source gives them in different places.

Tests used:
A549 NSCLC cells = assay: NSCLC cell proliferation in vitro (MTS assay); format: cell-based, human; settings: 72 hours, MTS assay
H1975 NSCLC cells = assay: NSCLC cell proliferation in vitro (MTS assay); format: cell-based, human; settings: 72 hours
Description: (§1) Cell culture: Human breast and non-small cell lung cancer cells (MCF7, ZR75-1, MDAMB231, A549, H23, H1975, […]) were from ATCC. MCF7-HER2 were a kind gift of Dr. Dennis Slamon (23). Cell lines were routinely maintained in RPMI 1640 or DMEM medium with 10% fetal bovine serum (FBS) (Sigma-Aldrich) and 1% Antibiotic-Antimycotic solution 100× (Mediatech, Herndon, Va.). When indicated, for estrogen-free conditions, media was changed 48 h before experiments to phenol-red free RPMI 1640/DMEM with 1% dextran-coated, charcoal-treated (DCC)-FBS (24,25). Otherwise experiments were performed in phenol-red free RPMI 1640/DMEM medium with 5% DCC-FBS.
(§2) Cell proliferation assays: breast and lung tumor cells (between […]) were plated in 96 well plates using their respective medium with 10% FBS. For experiments using estradiol-17β, cells were rinsed with PBS and incubated with phenol redfree medium with 1% DCC-FBS for 48 hours as described before (24,25). Cells were then treated with different concentrations of SERDs ranging between 0.0001-100 μM. […] Cell counts and viability tests (Trypan blue) were done every 24 hr for 3 days. After 72 hr, proliferation was assessed with the MTS Assay CELLTITER 96® Aqueous Cell Proliferation Assay (Promega) or the Cell Proliferation ELISA, BrdU colorimetric assay (Roche). For the MTS, the absorbance of the formazan product was measured at 490 nanometer using the iMARK microplate reader from BIORAD. The BrdU ELISA assay is based on detection of BrdU incorporated into the genomic DNA of proliferating cells and an anti-BrdU antibody, the reaction product was quantified by measuring the absorbance at 370 nanometers using iMARK microplate reader from BIORAD. Cell numbers were also assessed initially by cell counts to confirm MTS/BrdU data. Experiments were done at least three times to confirm data.

H2122 NSCLC cells = assay: NSCLC cell proliferation in vitro (MTS assay); format: cell-based, human; settings: 72 hours
Description: as §1, §2

[1] = test system: MCF-7 breast cancer cells; assay: MCF-7 breast cancer cell proliferation (BrdU ELISA) in presence of estradiol-17β; format: cell-based, human; settings: Homo sapiens, MCF7; 72 hrs in the presence of 1 nM estradiol-17β, BrdU ELISA; read-out: IC50 for inhibition of cell proliferation, MCF-7
Description: In experiments to assess potential proliferative effects of novel estrogen receptor ligands, human breast cancer cells were grown in phenol red-free, estrogen-free media with 1% dextran-coated charcoal-treated (DCC)-fetal bovine serum (FBS) for 48 hrs (15,44), then treated with either 1 μM or 50 μM doses of estrogen receptor antagonists in the presence of 1 nM estradiol-17β. Cell counts and viability tests (Trypan blue) were done every 24 hr for 3 days. After 72 hr, proliferation was assessed using the BrdU Cell proliferation ELISA (Roche). Cell numbers were also assessed initially by cell counts to confirm ELISA data. Each antiestrogen was tested at least in three different experiments.
In order to assess the antitumor action of novel estrogen receptor antagonists, we cultured human MCF-7 breast cancer cells with known expression of ERα. Cells were grown in 1% DCC-FBS for 48 hr and then treated with vehicle control or either 1 μM or 50 μM concentrations of antiestrogens JD 101-160 or the pure antiestrogen fulvestrant (FAS), all in the presence of 1 nM estradiol-170. […] Shown in FIG. 2A are results from MCF-7 cells grown in 1% DCC-FBS for 48 hr and then treated with vehicle control, 1 nM estradiol-170 and either 1 μM or 50 μM concentrations of antiestrogens JD 101-160 or the known pure antiestrogen fulvestrant (FAS) in the presence of 1 nM estradiol-170. Cell proliferation is expressed as percentage of that determined in the 1 nM estradiol-170-treated control group.
as §2

Rb serine-780 = Rb serine-780 phosphorylation, Western blot in A549 cells; format: cell-based, human; settings: 24 h, 1% DCC-FBS, 1 nM E2, 1 nM androstenedione, 10 nM testosterone, 10 μM letrozole, 100 nM palbociclib, FIG. 4C
Description: FIG. 4C. […] Cells were treated 24 h in phenol red-free RPMI with 1% DCC-FBS with vehicle control (CON), 1 nM estradiol-17β (E2), 1 nM androstenedione (And), 10 nM testosterone (Tes), 10 μM letrozole (AI), 100 nM palbociclib (Plbo) or both Plbo+AI. After 24 hr, cell lysates subjected to Western blot with antibody to phosphoserine-780 Rb or total Rb (Cell Signaling) (20). GAPDH is used as loading control.
To investigate the antitumor efficacy of CDK 4/6 inhibitor palbociclib in NSCLC cells, we assessed the effects of palbociclib alone and in combination with the hormonal therapeutic letrozole (see FIGS. 4B and 5B). The potential mechanism of action of palbociclib and letrozole in NSCLC cells was investigated by assay of the effects of these agents alone and combined on phosphorylation of Rb serine-780

MCF-7/HER-2 cells = settings: MCF-7 cells with HER2-overexpression, xenografts in nude mice; cited from earlier work
ER+ early breast cancer = settings: cited from earlier work
MCF-7 parental cells = settings: MCF-7 parental xenografts in nude mice; cited from earlier work
[2] = Homo sapiens, A549, CDK 4/6 inhibitor without SERD, 5% DCC-FBS, read-out: IC50 for inhibition of NSCLC cell proliferation, A549
[3] = Homo sapiens, NCI-H1975, CDK 4/6 inhibitor without SERD, 5% DCC-FBS, read-out: IC50 for inhibition of NSCLC cell proliferation, H1975
[4] = Homo sapiens, NCI-H2122, CDK 4/6 inhibitor without SERD, 5% DCC-FBS, read-out: IC50 for inhibition of NSCLC cell proliferation, H2122
[5] = Homo sapiens, A549, SERD alone, estrogen-depleted phenol red-free medium with 5% DCC-FBS, read-out: IC50 for inhibition of NSCLC cell proliferation, A549
[6] = Homo sapiens, NCI-H1975, SERD alone, estrogen-depleted phenol red-free medium with 5% DCC-FBS, read-out: IC50 for inhibition of NSCLC cell proliferation, H1975
[7] = Homo sapiens, NCI-H2122, SERD alone, estrogen-depleted phenol red-free medium with 5% DCC-FBS, read-out: IC50 for inhibition of NSCLC cell proliferation, H2122

For `CCN1CCN(Cc2ccc(Nc3ncc(F)c(-c4cc(F)c5nc(C)n(C(C)C)c5c4)n3)nc2)CC1` [Abemaciclib, abemaciclib, reference compound], the IC50 (A549 NSCLC cells; [2]) was 990 nM, the IC50 (H1975 NSCLC cells; [3]) was 830 nM and the IC50 (H2122 NSCLC cells; [4]) was 330 nM.

Work on `C[C@]12C[C@H](Oc3ccc(NC(=O)CN4CCOCC4)cc3)[C@@H]3c4ccc(O)cc4CC[C@H]3[C@@H]1CC[C@@H]2O` [JD103, N-(4-(((8S,9S,11S,13S,14S,17S)-3,17-Dihydroxy-13-methyl-7,8,9,11,12,13,14,15,16,17-deca-hydro-6H-cyclopenta[a]phenanthren-11-yl)oxy)phenyl)-2-morpholinoacetamide] yielded an IC50 (A549 NSCLC cells; [5]) of 1990 nM, an IC50 (A549 NSCLC cells; in the presence of 1 μM abemaciclib, 5% DCC-FBS, read-out: IC50 of SERD for inhibition of NSCLC cell proliferation, A549) of 560 nM and an IC50 (A549 NSCLC cells; in the presence of 1 μM palbociclib, 5% DCC-FBS, read-out: IC50 of SERD for inhibition of NSCLC cell proliferation, A549) of 1220 nM. For the same compound, the IC50 (H1975 NSCLC cells; [6]) was 2100 nM, the IC50 (H1975 NSCLC cells; in the presence of 1 μM abemaciclib, 5% DCC-FBS, read-out: IC50 of SERD for inhibition of NSCLC cell proliferation, H1975) was 2670 nM and the IC50 (H1975 NSCLC cells; in the presence of 1 μM palbociclib, 5% DCC-FBS, read-out: IC50 of SERD for inhibition of NSCLC cell proliferation, H1975) was 4550 nM. It also gave an IC50 (H2122 NSCLC cells; [7]) of 1330 nM, an IC50 (H2122 NSCLC cells; in the presence of 1 μM abemaciclib, 5% DCC-FBS, read-out: IC50 of SERD for inhibition of NSCLC cell proliferation, H2122) of 740 nM and an IC50 (H2122 NSCLC cells; in the presence of 1 μM palbociclib, 5% DCC-FBS, read-out: IC50 of SERD for inhibition of NSCLC cell proliferation, H2122) of 2400 nM. For the same compound, the IC50 [1] was 740 nM.

With `C[C@]12C[C@H](Oc3ccc(NCCN4CCOCC4)cc3)[C@@H]3c4ccc(O)cc4CC[C@H]3[C@@H]1CC[C@@H]2O` [JD121] the IC50 (A549 NSCLC cells; [5]) was 1260 nM, the IC50 (H1975 NSCLC cells; [6]) was 2620 nM and the IC50 (H2122 NSCLC cells; [7]) was 14500 nM. The IC50 [1] was 360 nM.

With `CN(C)CCCC(=O)Nc1ccc(O[C@H]2C[C@]3(C)[C@@H](O)CC[C@H]3[C@@H]3CCc4cc(O)ccc4[C@H]32)cc1C(F)(F)F` [JD155, N-(4-(((8S,9S,11S,13S,14S,17S)-3,17-Dihydroxy-13-methyl-7,8,9,11,12,13,14,15,16,17-deca-hydro-6H-cyclopenta[a]phenanthren-11-yl)oxy)-2-(trifluoromethyl)phenyl)-4-(dimethylamino)butanamide] the IC50 (A549 NSCLC cells; [5]) was 2050 nM, the IC50 (H1975 NSCLC cells; [6]) was 4410 nM and the IC50 (H2122 NSCLC cells; [7]) was 1220 nM.

`C[C@]12C[C@H](Oc3ccc(NC(=O)CCCCN4CCCCC4)c(C(F)(F)F)c3)[C@@H]3c4ccc(O)cc4CC[C@H]3[C@@H]1CC[C@@H]2O` [JD156, N-(4-(((8S,9S,11S,13S,14S,17S)-3,17-Dihydroxy-13-methyl-7,8,9,11,12,13,14,15,16,17-deca-hydro-6H-cyclopenta[a]phenanthren-11-yl)oxy)-2-(trifluoromethyl)phenyl)-5-(piperidin-1-yl)pentanamide] showed an IC50 (A549 NSCLC cells; [5]) of 1600 nM, an IC50 (H1975 NSCLC cells; [6]) of 3200 nM and an IC50 (H2122 NSCLC cells; [7]) of 1690 nM.

Compound `C[C@]12C[C@H](Oc3ccc(NC(=O)CCCCN4CCOCC4)c(C(F)(F)F)c3)[C@@H]3c4ccc(O)cc4CC[C@H]3[C@@H]1CC[C@@H]2O` [JD157, N-(4-(((8S,9S,11S,13S,14S,17S)-3,17-Dihydroxy-13-methyl-7,8,9,11,12,13,14,15,16,17-deca-hydro-6H-cyclopenta[a]phenanthren-11-yl)oxy)-2-(trifluoromethyl)phenyl)-5-morpholino-pentanamide] has an IC50 (A549 NSCLC cells; [5]) of 3950 nM, an IC50 (H1975 NSCLC cells; [6]) of 1800 nM and an IC50 (H2122 NSCLC cells; [7]) of 1280 nM.

Compound `C[C@]12C[C@H](Oc3ccc(NC(=O)CCCN4CCCCC4)c(C(F)(F)F)c3)[C@@H]3c4ccc(O)cc4CC[C@H]3[C@@H]1CC[C@@H]2O` [JD160, N-(4-(((8S,9S,11S,13S,14S,17S)-3,17-Dihydroxy-13-methyl-7,8,9,11,12,13,14,15,16,17-deca-hydro-6H-cyclopenta[a]phenanthren-11-yl)oxy)-2-(trifluoromethyl)phenyl)-4-(piperidin-1-yl)butanamide] has an IC50 (A549 NSCLC cells; [5]) of 1410 nM, an IC50 (H1975 NSCLC cells; [6]) of 2020 nM and an IC50 (H2122 NSCLC cells; [7]) of 2720 nM. It also gave an IC50 [1] of 320 nM.

Compound `CC(=O)c1c(C)c2cnc(Nc3ccc(N4CCNCC4)cn3)nc2n(C2CCCC2)c1=O` [Palbociclib, palbociclib, reference compound] has an IC50 (A549 NSCLC cells; [2]) of 3040 nM, an IC50 (H1975 NSCLC cells; [3]) of 1180 nM and an IC50 (H2122 NSCLC cells; [4]) of 870 nM.

In the case of `C[C@]12CCC(=O)C=C1CC[C@@H]1[C@@H]2CC[C@]2(C)C(=O)CC[C@@H]12` [androstenedione], the “phosphorylation of Rb serine-780” value (Rb serine-780) is reported as “stimulate Rb phosphorylation”.

In the case of `CC/C(=C(\c1ccccc1)c1ccc(OCCN(C)C)cc1)c1ccccc1` [tamoxifen], the “sensitivity of MCF-7/HER-2 xenografts” value (MCF-7/HER-2 cells) is listed as “insensitive”, the “reduction in disease recurrence” value (ER+ early breast cancer) is listed as 39% and the reduction in mortality (ER+ early breast cancer) is listed as 31%. The “growth of parent tumors (xenografts)” value (MCF-7 parental cells) was “suppressed”.

With `C[C@]12CC[C@H]3[C@@H](CCC4=CC(=O)CC[C@@]43C)[C@@H]1CC[C@@H]2O` [testosterone] the “phosphorylation of Rb serine-780” value (Rb serine-780) was “stimulate Rb phosphorylation”.
